Here are results for four molecules from BindingDB's records for doi:10.1021/acschembio.7b00124 (University of Helsinki, 2017).

Molecules are shown by their SMILES. Where a SMILES comes first, the peptide text is derived from it. Bridges are numbered along the chain shown (N, C = ends). [ ]: non-standard residue; d: D form. ξ: configuration not given here. Thr(3ξ) = CC(O)[C@H](N)C(=O)O; hLys = NCCCCC[C@H](N)C(=O)O

In assay [1] the target is Chymotrypsin-like elastase family member 1 (Bos taurus, UniProt Q28153). The experiment in a line: Protease Inhibition Assays. As to conditions: 37 °C. The protocol:
(§1) The inhibition assays were performed in 96-well microtiter plates as follows: 30 uL of the enzyme solution (trypsin [100 ug/mL] or elastase [1.5 U/mL]) and 60 uL of the buffer (50 mM Tris-HCl, 20 mM CaCl2 at pH 7.5) were pipetted into a series of six wells. A total of 10 uL of a 2000 uM peptide solution (microviridin variant) was then added to well 1 and serially diluted up to well 5; well 6 was used as the control. After completing the serial dilution of the sample, 10 uL was taken from well 5 and discarded to maintain the same volume in all wells. The plates were then incubated for 5 min at 37 °C, and subsequently 90 uL of the substrate solution (trypsin assay, N-benzoyl-DL-arginine-4-nitroanilide hydrochloride (BAPNA) [2.17 mg mL-1]; elastase assay, succinyl-Ala-Ala-Ala-p-nitroanilide (Suc-ALA3-pNA) [1 mg mL-1]) was added to each well. The enzymatic activity was measured spectrophotometrically (Varioscan Flash, Thermo Scientific) at 410 nm after incubation at 37 °C for 15 m

Another assay addresses T1, Serine protease 1 (Bos taurus, UniProt P00760).
T1 sequence (P00760 whole entry): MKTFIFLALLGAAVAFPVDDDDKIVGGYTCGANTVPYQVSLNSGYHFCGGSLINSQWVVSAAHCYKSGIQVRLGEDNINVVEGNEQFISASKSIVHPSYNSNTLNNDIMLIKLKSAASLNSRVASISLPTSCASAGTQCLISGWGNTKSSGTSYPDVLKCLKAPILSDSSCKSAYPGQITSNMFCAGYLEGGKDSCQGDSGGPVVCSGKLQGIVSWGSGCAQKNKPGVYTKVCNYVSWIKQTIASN
Briefly: Protease Inhibition Assays. As to conditions: 37 °C. The method, then: as §1

Chain of Chymotrypsin-like elastase family member 1 (Q28153 whole entry): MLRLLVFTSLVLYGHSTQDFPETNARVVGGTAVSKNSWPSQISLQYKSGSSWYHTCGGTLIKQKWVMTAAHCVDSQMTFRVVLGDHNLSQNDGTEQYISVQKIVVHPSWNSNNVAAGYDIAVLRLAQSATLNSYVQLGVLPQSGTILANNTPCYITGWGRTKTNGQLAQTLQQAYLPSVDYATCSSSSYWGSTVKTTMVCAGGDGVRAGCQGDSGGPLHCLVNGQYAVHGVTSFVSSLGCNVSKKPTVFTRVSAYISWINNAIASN

`CC(C)C[C@@H]1NC(=O)[C@@H](NC(=O)[C@H](C)N)C(C)OC(=O)C[C@@H]2NC(=O)[C@@H]3COC(=O)CC[C@H](NC(=O)[C@H](Cc4c[nH]c5ccccc45)NC2=O)C(=O)N[C@H](C(=O)N[C@@H](Cc2ccc(O)cc2)C(=O)O)CCC(=O)NCCCC[C@H](NC1=O)C(=O)N[C@@H](Cc1ccc(O)cc1)C(=O)N1CCC[C@H]1C(=O)N3` (some centres undefined) [MdnA8] (H-A[Thr(3ξ)]LKYPSDWEEY-OH; ester 2-8, 7-10; lactam 4-11): the IC50 in assay [1] was 21800 nM.

For the molecule `CC(C)[C@H](NC(=O)[C@@H](N)[C@@H](C)O)C(=O)N[C@@H]1C(=O)N[C@@H](CCCNC(=N)N)C(=O)N[C@H]2CCCCNC(=O)C[C@@H](C(=O)N[C@@H](Cc3ccc(O)cc3)C(=O)O)NC(=O)[C@@H]3CCC(=O)OC[C@H](NC(=O)[C@@H]4CCCN4C(=O)[C@H](Cc4ccc(O)cc4)NC2=O)C(=O)N[C@@H](CC(=O)OC1C)C(=O)N[C@@H](Cc1c[nH]c2ccccc12)C(=O)N3` (some centres undefined) [MdnA3] (H-TV[Thr(3ξ)]RKYPSDWEDY-OH; ester 3-9, 8-11; lactam 5-12), at Serine protease 1, the IC50 is 28.4 nM.

`CC(C)C[C@@H]1NC(=O)[C@@H](NC(=O)[C@H](CC(N)=O)NC(=O)[C@H](CCC(N)=O)NC(=O)[C@@H](N)Cc2ccc(O)cc2)C(C)OC(=O)C[C@@H]2NC(=O)[C@@H]3COC(=O)CC[C@H](NC(=O)[C@H](Cc4c[nH]c5ccccc45)NC2=O)C(=O)N[C@H](C(=O)N[C@@H](Cc2ccc(O)cc2)C(=O)O)CCC(=O)NCCCC[C@H](NC1=O)C(=O)N[C@@H](Cc1ccc(O)cc1)C(=O)N1CCC[C@H]1C(=O)N3` (some centres undefined) [MdnA7] (H-YQN[Thr(3ξ)]LKYPSDWEEY-OH; ester 4-10, 9-12; lactam 6-13) displayed an IC50 in assay [1] of 1050 nM.

In turn, `CC(C)[C@H](NC(=O)[C@@H](N)Cc1ccc(O)cc1)C(=O)N[C@@H]1C(=O)N[C@@H](CCCCCN)C(=O)N[C@H]2CCCCNC(=O)CC[C@@H](C(=O)N[C@@H](Cc3ccc(O)cc3)C(=O)O)NC(=O)[C@@H]3CCC(=O)OC[C@H](NC(=O)[C@@H]4CCCN4C(=O)[C@H](Cc4ccc(O)cc4)NC2=O)C(=O)N[C@@H](CC(=O)OC1C)C(=O)N[C@@H](Cc1c[nH]c2ccccc12)C(=O)N3` (some centres undefined) [MdnA6] (H-YV[Thr(3ξ)][hLys]KYPSDWEEY-OH; ester 3-9, 8-11; lactam 5-12) had an IC50 against Serine protease 1 of 21.5 nM.

What is called IC50 is the midpoint of a concentration-inhibition curve. High values mean lower potency, low ones higher potency.
